By EC50 is commonly meant the concentration giving half of the maximal effect. Read a low EC50 as a more potent agent. As a reminder, the Emax is the size of the effect at its maximum, as opposed to the concentration needed.

Where two headings read alike, the source gives them in different places. A value given as a limit tells only on which side of the number the result lay.

We go through 16 molecules from US20230002348A1 (ILDONG PHARMACEUTICAL CO., LTD., priority 2019, published 2023).

This experiment concerns the target T1, GLP-1 receptor (Homo sapiens, UniProt P43220).
T1 construct: expressed in transfected cells; host or cells: CHO-K1
Put plainly: cAMP assay (HTRF) in GLP-1 receptor CHO-K1 cells. The conditions noted are these: for Emax: CHO-K1, cAMP stimulation ratio. In kind it is cell-based. The protocol:
The cAMP assay test was performed according to a method optimized based on a protocol provided by cAMP assay kit manufacturer (CISBIO). […] 54, of the compounds according to the Examples 1, 2, 5, 8, 12, 13, 15, 16, 19, 20, 23, 29, 32, 37, 39 and 43 at the concentration of 0, 1, 10, 100, 1000, 10000 nM was treated to each of the wells of the other plates, respectively. The cells were incubated at room temperature for 7 minutes. A cAMP-d2 conjugate reagent was prepared by mixing a cAMP conjugate with an elution buffer at a ratio of 1:4. An anti-cAMP cryptate conjugate reagent was prepared by mixing a […] with an elution buffer at a ratio of 1:4. Then, 5 μL, of the cAMP-d2 conjugate reagent was added to each of the wells. Subsequently, 5 μL, of the anti-cAMP cryptate conjugate reagent was added to each of the wells. After incubation of the cells at room temperature for 1 hour, HTRF signals at wavelengths of 665 nm and 620 nm of the culture were measured using a FlexStaton 3 (Molecular Devices) instrument. The ratio of 665/620 was calculated from the measured values at 665 nm and 620 nm with regard to Exendin-4 and the compounds of the Examples, respectively.
In general terms: Changes in cAMP serve as a functional read-out for many G protein-coupled receptors.

Where [1] appears, read: 665/620 ratio with Exendin-4 converted to 100%.

T1 sequence (P43220 24-463, species assumed): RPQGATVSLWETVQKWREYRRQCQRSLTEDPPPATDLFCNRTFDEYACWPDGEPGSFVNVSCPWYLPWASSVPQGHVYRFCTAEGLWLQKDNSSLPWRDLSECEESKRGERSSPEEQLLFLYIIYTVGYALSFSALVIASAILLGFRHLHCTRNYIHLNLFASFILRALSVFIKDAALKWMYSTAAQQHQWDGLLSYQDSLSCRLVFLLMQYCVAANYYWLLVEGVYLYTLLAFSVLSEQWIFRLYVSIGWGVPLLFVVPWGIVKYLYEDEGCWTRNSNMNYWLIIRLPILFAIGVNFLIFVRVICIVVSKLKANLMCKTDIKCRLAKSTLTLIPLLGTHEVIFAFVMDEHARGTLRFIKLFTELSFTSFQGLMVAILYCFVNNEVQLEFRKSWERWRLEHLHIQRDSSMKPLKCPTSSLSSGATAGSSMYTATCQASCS

`N#Cc1ccc(COc2nccc(N[C@@H]3CCN(Cc4nc5ccc(C(=O)O)cc5n4C[C@@H]4CCO4)C3)n2)c(F)c1` [Example 23, 2-(((R)-3-((2-((4-cyano-2-fluorobenzyl)oxy)pyrimidin-4-yl)amino)pyrrolidin-1-yl)methyl)-1-(((S)-oxetan-2-yl)methyl)-1H-benzo[d]imidazole-6-carboxylic acid] had an EC50 of 100 to 200 nM. Further, the maximal effect (Emax) under setting [1] is 99.8%.

Consider `O=C(O)c1ccc2nc(CN3CCC(Nc4cccc(OCc5ccc(Cl)cn5)n4)CC3)n(C[C@@H]3CCO3)c2c1` [Example 39, (S)-2-((4-((6-((5-chloropyridin-2-yl)methoxy)pyridin-2-yl)amino)piperidin-1-yl)methyl)-1-(oxetan-2-ylmethyl)-1H-benzo[d]imidazole-6-carboxylic acid], for which the concentration for a half-maximal effect (EC50) lay within 100 to 200 nM. Moreover, under setting [1], the Emax came out at 96.6%.

In the case of `N#Cc1ccc(COc2cccc(N[C@@H]3CCN(Cc4nc5ccc(C(=O)O)cc5n4C[C@@H]4CCO4)C3)n2)c(F)c1` [Example 32, 2-(((R)-3-((6-((4-cyano-2-fluorobenzyl)oxy)pyridin-2-yl)amino)pyrrolidin-1-yl)methyl)-1-(((S)-oxetan-2-yl)methyl)-1H-benzo[d]imidazole-6-carboxylic acid], the EC50 (GLP-1 receptor CHO-K1 cells, cAMP HTRF, 7 minutes incubation at room temperature) was less than 100 nM. Moreover, where the note is “cAMP stimulation ratio, 665/620 ratio with Exendin-4 converted to 100%”, the “Emax (%)” value is on record as 96.94%.

Molecule `N#Cc1ccc(COc2cccc(N[C@@H]3CCN(Cc4nc5ccc(C(=O)O)cc5n4C[C@@H]4CCO4)C3)n2)c(F)c1` [Example 20, 2-((3-((6-((4-cyano-2-fluorobenzyl)oxy)pyridin-2-yl)amino)pyrrolidin-1-yl)methyl)-1-(((S)-oxetan-2-yl)methyl)-1H-benzo[d]imidazole-6-carboxylic acid] gave an EC50 of less than 100 nM. For the same molecule, under setting [1], the Emax was determined as 96.3%.

Molecule `N#Cc1ccc(COc2cncc(NC3CCN(Cc4nc5ccc(C(=O)O)cc5n4C[C@@H]4CCO4)CC3)n2)c(F)c1` [Example 19, (S)-2-((4-((6-((4-cyano-2-fluorobenzyl)oxy)pyrazin-2-yl)amino)piperidin-1-yl)methyl)-1-(oxetan-2-ylmethyl)-1H-benzo[d]imidazole-6-carboxylic acid] came in with a concentration for a half-maximal effect (EC50) of 100 to 200 nM. Also, under setting [1], the Emax stood at 97%.

Take `N#Cc1ccc(COc2cccc(NC3CCN(Cc4nc5ccc(C(=O)O)cc5n4C[C@@H]4CCO4)CC3)n2)c(F)c1` [Example 1, (S)-2-((4-((6-((4-cyano-2-fluorobenzyl)oxy)pyridin-2-yl)amino)piperidin-1-yl)methyl)-1-(oxetan-2-ylmethyl)-1H-benzo[d]imidazole-6-carboxylic acid]: the EC50 was less than 100 nM. Moreover, under setting [1], the maximal response (Emax) stood at 96.3%.

For `N#Cc1ccc(COc2cccc(N[C@@H]3CCN(Cc4nc5ccc(C(=O)O)cc5n4C[C@@H]4CCO4)C3)c2)c(F)c1` [Example 37, 2-(((R)-3-((3-((4-cyano-2-fluorobenzyl)oxy)phenyl)amino)pyrrolidin-1-yl)methyl)-1-(((S)-oxetan-2-yl)methyl)-1H-benzo[d]imidazole-6-carboxylic acid], the EC50 was less than 100 nM. Under setting [1], the maximum response (Emax) is 127%.

Turning to `O=C(O)c1ccc2nc(CN3CC[C@@H](Nc4cccc(OCc5ccc(Cl)cc5F)n4)C3)n(C[C@@H]3CCO3)c2c1` [Example 15, 2-(((R)-3-((6-((4-chloro-2-fluorobenzyl)oxy)pyridin-2-yl)amino)pyrrolidin-1-yl)methyl)-1-(((S)-oxetan-2-yl)methyl)-1H-benzo[d]imidazole-6-carboxylic acid], the concentration giving a half-maximal response (EC50) is less than 100 nM. Besides, the Emax under setting [1] was 99.6%.

As for `O=C(O)c1ccc2nc(CN3CC[C@@H](Nc4ncc(F)c(OCc5ccc(Cl)cc5F)n4)C3)n(C[C@@H]3CCO3)c2c1` [Example 29, 2-(((R)-3-((4-((4-chloro-2-fluorobenzyl)oxy)-5-fluoropyrimidin-2-yl)amino)pyrrolidin-1-yl)methyl)-1-(((S)-oxetan-2-yl)methyl)-1H-benzo[d]imidazole-6-carboxylic acid], the concentration for a half-maximal effect (EC50) was less than 100 nM. Further, the Emax under setting [1] came out at 99.2%.

Turning to `N#Cc1ccc(COc2ccnc(N[C@@H]3CCN(Cc4nc5ccc(C(=O)O)cc5n4C[C@@H]4CCO4)C3)n2)c(F)c1` [Example 43, 2-(((R)-3-((4-((4-cyano-2-fluorobenzyl)oxy)pyrimidin-2-yl)amino)pyrrolidin-1-yl)methyl)-1-(((S)-oxetan-2-yl)methyl)-1H-benzo[d]imidazole-6-carboxylic acid], the EC50 is less than 100 nM. Further, under setting [1], the Emax worked out at 110%.

Regarding `O=C(O)c1ccc2nc(CN3CCC(Nc4cccc(OCc5ccc(Cl)cc5F)n4)CC3)n(C[C@@H]3CCO3)c2c1` [Example 12, (S)-2-((4-((6-((4-chloro-2-fluorobenzyl)oxy)pyridin-2-yl)amino)piperidin-1-yl)methyl)-1-(oxetan-2-ylmethyl)-1H-benzo[d]imidazole-6-carboxylic acid], the EC50 is less than 100 nM. Also, under setting [1], the Emax stood at 103%.

The molecule `N#Cc1ccc(COc2cc(N[C@@H]3CCN(Cc4nc5ccc(C(=O)O)cc5n4C[C@@H]4CCO4)C3)ccc2F)nc1` [Example 8, 2-(((R)-3-((3-((5-cyanopyridin-2-yl)methoxy)-4-fluorophenyl)amino)pyrrolidin-1-yl)methyl)-1-(((S)-oxetan-2-yl)methyl)-1H-benzo[d]imidazole-6-carboxylic acid] gave an EC50 of less than 100 nM. Under setting [1], the maximum response (Emax) was 99.6%.

On to `N#Cc1ccc(COc2cccc(NC3CCN(Cc4nc5ccc(C(=O)O)cc5n4C[C@@H]4CCO4)CC3)c2)c(F)c1` [Example 2, (S)-2-((4-((3-((4-cyano-2-fluorobenzyl)oxy)phenyl)amino)piperidin-1-yl)methyl)-1-(oxetan-2-ylmethyl)-1H-benzo[d]imidazole-6-carboxylic acid], for which the concentration for a half-maximal effect (EC50) lay in the range of 100 to 200 nM. Further, the Emax under setting [1] amounted to 102%.

Molecule `O=C(O)c1ccc2nc(CN3CC[C@@H](Nc4cccc(OCc5ccc(Cl)cc5F)n4)C3)n(C[C@@H]3CCO3)c2n1` [Example 16, 2-(((R)-3-((6-((4-chloro-2-fluorobenzyl)oxy)pyridin-2-yl)amino)pyrrolidin-1-yl)methyl)-3-(((S)-oxetan-2-yl)methyl)-3H-imidazo[4,5-b]pyridine-5-carboxylic acid] displayed an EC50 of less than 100 nM. Further, the Emax under setting [1] was determined as 95%.

Molecule `O=C(O)c1ccc2nc(CN3CCC(Nc4cccc(OCc5ccc(Cl)cc5F)n4)CC3)n(C[C@@H]3CCO3)c2n1` [Example 13] displayed a half-maximal effective concentration (EC50) of less than 100 nM. Moreover, the Emax under setting [1] is 94.5%.

Regarding `O=C(O)c1ccc2nc(CN3CCC(Oc4cccc(NCc5ccc(Cl)cc5F)n4)CC3)n(C[C@@H]3CCO3)c2c1` [Example 5, (S)-2-((4-((6-((4-chloro-2-fluorobenzyl)amino)pyridin-2-yl)oxy)piperidin-1-yl)methyl)-1-(oxetan-2-ylmethyl)-1H-benzo[d]imidazole-6-carboxylic acid], the EC50 lay within 100 to 200 nM. Under setting [1], the Emax amounted to 107%.
